{
  "source": "paper PMC9739537",
  "about": "“Bioassay-Guided Fractionation with Antimalarial and Antimicrobial Activities of Paeonia officinalis” (Molecules, 2022)",
  "key": {"P. falciparum W2": {"test_system": "P. falciparum W2", "assay": "Antimalarial assay (plasmodial LDH activity), W2 strain", "format": "cell-based, Plasmodium falciparum", "details": "for IC50: Plasmodium falciparum, read-out: IC50 antiplasmodial activity, P. falciparum W2; for SI (Selectivity index), P. falciparum W2: VERO vs P. falciparum W2", "protocol": "(§1) The assay is based on the measurement of plasmodial LDH activity. The test was conducted using a suspension of red blood cells infected with D6 or W2 strains of P. falciparum (200 µL, with 2% parasitemia, and 2% hematocrit in RPMI 1640 medium supplemented with 10% human serum and 60 µg/mL Amikacin) into the wells of a 96-well plate containing 10 µL of test samples diluted in medium at various concentrations. The plate was put in a modular incubation chamber (Billups-Rothenberg, San Diego, CA, USA); flushed with a gas mixture consisting of 90% N2, 5% O2, and 5% CO2; and incubated for 72 h at 37 °C. Parasitic LDH activity was measured by utilizing Malstat reagent (Flow Inc., Portland, OR, USA). Briefly, 20 µL of the incubation mixture was combined with 100 µL of the Malstat reagent and incubated at room temperature for 30 min. Then, twenty microliters of a 1:1 mixture of NBT/PES (Sigma, St. Louis, MO, USA) was added and the plate was further incubated in the dark for 1 h. The reaction was then stopped by the addition of 100 µL of a 5% acetic acid solution. The plate was read at 650 nm using the EL-340 Biokinetics Reader (Bio-Tek Instruments, Winooski, VT, USA). The dose–response curves were used to calculate IC50 values. […] Dimethyl sulfoxide (0.25%) was used as vehicle control."}, "VERO": {"test_system": "VERO", "assay": "Cytotoxicity toward mammalian kidney fibroblasts (Vero)", "format": "cell-based", "details": "Chlorocebus sabaeus, VERO cells"}, "P. falciparum D6": {"test_system": "P. falciparum D6", "assay": "Antimalarial assay (plasmodial LDH activity), D6 strain", "format": "cell-based, Plasmodium falciparum", "details": "for IC50: Plasmodium falciparum, read-out: IC50 antiplasmodial activity, P. falciparum D6; for SI (Selectivity index), P. falciparum D6: VERO vs P. falciparum D6", "protocol": "as §1"}, "C. neoformans": {"test_system": "C. neoformans", "assay": "Antimicrobial susceptibility testing (modified CLSI), C. neoformans", "format": "cell-based, Cryptococcus neoformans", "description": "(§2) The microorganism strains that were employed to test the antimicrobial activity were Candida albicans Pinh, C. neoformans Pinh, Aspergillus fumigatus Pinh, methicillin-resistant Staphylococcus aureus Pinh (MRS), E. coli Pinh, Pseudomonas aeruginosa Pinh, Klebsiella pneumoniae Pinh, and Vancomycin-resistant Enterococci (VRE) Pinh. The strains were bought from the American Type Culture Collection. A modified version of the CLSI methodology was used for the susceptibility testing. A final DMSO concentration of 1% was maintained in the assay by serially diluting all samples in 20% DMSO/saline and transferring them in duplicate to 384 well flat-bottom microplates. Following the McFarland standard, inocula were created by adjusting the OD630 of microbe suspensions in incubation broth. C. albicans was cultured in RPMI 1640 broth (2% dextrose, 0.03% glutamine, and MOPS at pH 6); C. neoformans in Sabouraud Dextrose; MRS, VRE, E. coli, K. pneumoniae, and P. aeruginosa in cation-adjusted Mueller–Hinton at pH 7.3, and A. fumigatus in RPMI 1640 broth (2% dextrose, 0.03% glutamine, buffered with 0.165 M MOPS at pH 7). Five percent Alamar Blue was added in A. fumigatus, VRE, and MRS. In every assay, there were drug controls for bacteria and fungi. […] A Bio-Tek plate reader was used to measure the optical density (530 nm) or fluorescence (544ex/590em) before and after incubation."}, "Klebsiella pneumoniae": {"test_system": "Klebsiella pneumoniae", "assay": "Antimicrobial susceptibility testing (modified CLSI), K. pneumoniae", "format": "cell-based", "description": "as §2"}, "Pseudomonas aeruginosa": {"test_system": "Pseudomonas aeruginosa", "assay": "Antimicrobial susceptibility testing (modified CLSI), P. aeruginosa", "format": "cell-based", "description": "as §2"}, "[1]": {"test_system": "methicillin-resistant Staphylococcus aureus (MRS)", "assay": "Antimicrobial susceptibility testing (modified CLSI), MRS", "format": "cell-based", "description": "as §2"}, "[2]": {"test_system": "Candida albicans, C. neoformans, Aspergillus fumigatus, MRS, E. coli, Pseudomonas aeruginosa, Klebsiella pneumoniae, VRE", "assay": "Antimicrobial panel (all assayed microorganisms)", "format": "cell-based", "details": "at the tested concentration", "description": "as §2"}},
  "note": "Read-outs that look alike come from different tables or passages of the source.",
  "data": [
    {"smiles": "CCN(CC)CCCC(C)Nc1ccnc2cc(Cl)ccc12", "note": "(stereo not shown) [Chloroquine, chloroquine, reference compound]", "values": [
      {"measurement": "IC50", "setting": "P. falciparum W2; W2, 72 h", "result": 0.14, "unit": "µg/mL"},
      {"measurement": "IC50", "setting": "VERO", "result": "> 0.24", "unit": "µg/mL"},
      {"measurement": "IC50", "setting": "P. falciparum D6; D6, 72 h", "result": 0.026, "unit": "µg/mL"}
    ]},
    {"smiles": "OC(Cn1cncn1)(Cn1cncn1)c1ccc(F)cc1F", "note": "[Fluconazole, fluconazole]", "values": [
      {"measurement": "IC50 antimicrobial activity, C. neoformans", "setting": "C. neoformans", "result": 4.684, "unit": "µg/mL"},
      {"measurement": "IC50", "setting": "C. neoformans; Cryptococcus neoformans", "result": 4.68, "unit": "µg/mL"}
    ]},
    {"smiles": "C[C@@H](O)[C@H]1C(=O)N2C(C(=O)O)=C(S[C@@H]3CN[C@H](C(=O)N(C)C)C3)[C@H](C)[C@H]12", "note": "[Meropenem, meropenem]", "values": [
      {"measurement": "IC50 antimicrobial activity, K. pneumoniae", "setting": "Klebsiella pneumoniae", "result": 9.143, "unit": "µg/mL"},
      {"measurement": "IC50 antimicrobial activity, K. pneumoniae", "setting": "Klebsiella pneumoniae; listed as meropenem", "result": 43.94, "unit": "µg/mL"},
      {"measurement": "IC50", "setting": "Pseudomonas aeruginosa", "result": 28.7, "unit": "µg/mL"},
      {"measurement": "IC50", "setting": "[1]", "result": 46.9, "unit": "µg/mL"}
    ]},
    {"smiles": "COC(=O)c1cc(O)c(O)c(O)c1", "note": "[compound 3, methyl gallate]", "values": [
      {"measurement": "IC50", "setting": "P. falciparum W2; W2 strain, 72 h", "result": 0.61, "unit": "µg/mL"},
      {"measurement": "SI (Selectivity index), P. falciparum W2", "setting": "P. falciparum W2", "result": ">7.8"},
      {"measurement": "antiplasmodial activity against P. falciparum W2 (in words)", "setting": "P. falciparum W2; W2 strain", "result": "remarkable antiplasmodial activity"},
      {"measurement": "antimicrobial activity (in words)", "setting": "[2]", "result": "no exhibition of antimicrobial activity"},
      {"measurement": "IC50", "setting": "VERO", "result": "> 4.76", "unit": "µg/mL"},
      {"measurement": "antiplasmodial activity against P. falciparum D6 (in words)", "setting": "P. falciparum D6; D6 strain", "result": "remarkable antiplasmodial activity"},
      {"measurement": "IC50", "setting": "P. falciparum D6; D6 strain, 72 h", "result": 1.57, "unit": "µg/mL"},
      {"measurement": "SI (Selectivity index), P. falciparum D6", "setting": "P. falciparum D6", "result": ">3"}
    ]},
    {"smiles": "C[C@@]12C[C@@]3(O)O[C@@H](O1)[C@]1(COC(=O)c4ccccc4)[C@@H]3C[C@]12O[C@@H]1O[C@H](COC(=O)c2cc(O)c(O)c(O)c2)[C@@H](O)[C@H](O)[C@H]1O", "note": "[compound 5, galloyl paeoniflorin]", "values": [
      {"measurement": "IC50", "setting": "P. falciparum W2; W2 strain, 72 h", "result": 2.91, "unit": "µg/mL"},
      {"measurement": "SI (Selectivity index), P. falciparum W2", "setting": "P. falciparum W2", "result": ">1.6"},
      {"measurement": "antiplasmodial activity against P. falciparum W2 (in words)", "setting": "P. falciparum W2; W2 strain", "result": "remarkable antiplasmodial activity"},
      {"measurement": "antimicrobial activity (in words)", "setting": "[2]", "result": "no exhibition of antimicrobial activity"},
      {"measurement": "IC50", "setting": "VERO", "result": "> 4.76", "unit": "µg/mL"},
      {"measurement": "antiplasmodial activity against P. falciparum D6 (in words)", "setting": "P. falciparum D6; D6 strain", "result": "remarkable antiplasmodial activity"},
      {"measurement": "IC50", "setting": "P. falciparum D6; D6 strain, 72 h", "result": 4.72, "unit": "µg/mL"},
      {"measurement": "SI (Selectivity index), P. falciparum D6", "setting": "P. falciparum D6", "result": ">1"}
    ]}
  ]
}
